According to patent publication US7662748B2, “Formulations comprising triazoles and alkoxylated amines” (Janssen Pharmaceutica, N.V., priority 2002, dated 2010):

Experiments:
[1] = system: Erisiphe graminis; test: Fungicidal activity versus powdery mildew on wheat plants; assay type: in vivo, Erisiphe graminis on winter wheat plants, variety Corvus; conditions: day 17, mean of 4 replicates
Method: • Test model: Winter wheat plants, variety Corvus, were sprayed with the test solutions till run off. Treated plants were incubated in the glasshouse and dusted with Erisiphe graminis conidia after drying. • Test solutions: • 1) aqueous solutions were prepared by diluting a commercial propiconazole formulation “Tilt® 250 EC” until spray solutions were obtained comprising 8, 16, 20, and 24 ppm of propiconazole. • 2) aqueous solutions were prepared comprising of 40, 80, 160, 320, 640, 1280, and 2560 ppm of N,N′,N′-tris(2-hydroxyethyl)-N-cocoalkyl-1,3-diamino-propane (i.e. ethoduomeen C/13). • 3) to aqueous solutions comprising 8 and 16 ppm of propiconazole an amount of “ethoduomeen C/13” was added yielding test solutions wherein the ratio of propiconazole over “ethoduomeen C/13” is 1/160, 1/80, 1/40, 1/20, 1/10 and 1/5.
The commercial “Tilt® 250 EC” formulation comprises 25% (w/v) of propiconazole dissolved in an aromatic petroleum hydrocarbon liquid mixture.
On day 17 after dusting the wheat plants with Erisiphe graminis the % inhibition of fungal growth was evaluated.

[2] = system: Erisiphe graminis; test: as above; assay type: in vivo, Erisiphe graminis on winter wheat plants, variety Corvus; conditions: propiconazole 0, ethoduomeen C/13 16 ppm a.i.; day 17; mean of 4 replicates

Compound: CCCC1COC(Cn2cncn2)(c2ccc(Cl)cc2Cl)O1 (centres unmarked) [propiconazole, 1-[[2-(2,4-dichlorophenyl)-4-propyl-1,3-dioxolan-2-yl]methyl]-1H -1,2,4-triazole]
- % Fungicidal activity versus E. graminis ([1]; propiconazole 8 ppm a.i., ethoduomeen C/13 0): 25%
- % Fungicidal activity versus E. graminis ([1]; propiconazole 16 ppm a.i., ethoduomeen C/13 0): 50%
- % Fungicidal activity versus E. graminis ([1]; propiconazole 20 ppm a.i., ethoduomeen C/13 0): 50%
- % Fungicidal activity versus E. graminis ([1]; propiconazole 24 ppm a.i., ethoduomeen C/13 0): 80%

Compound: N,N′,N′-tris(2-hydroxyethyl)-N-cocoalkyl-1,3-diamino-propane [ethoduomeen C/13]
- % Fungicidal activity versus E. graminis ([1]; propiconazole 0, ethoduomeen C/13 40 ppm a.i.): 0%
- % Fungicidal activity versus E. graminis ([1]; propiconazole 0, ethoduomeen C/13 80 ppm a.i.): 0%
- % Fungicidal activity versus E. graminis ([1]; propiconazole 0, ethoduomeen C/13 320 ppm a.i.): 0%
- % Fungicidal activity versus E. graminis ([1]; propiconazole 0, ethoduomeen C/13 640 ppm a.i.): 0%
- % Fungicidal activity versus E. graminis ([1]; propiconazole 0, ethoduomeen C/13 1280 ppm a.i.): 0%
- % Fungicidal activity versus E. graminis ([1]; propiconazole 0, ethoduomeen C/13 2560 ppm a.i.): 0%
- % Fungicidal activity versus E. graminis [2]: 0%
